# Test results from patent US20130254944A1, “Herbicide Tolerant Soybeans and Methods of Use” (PIONEER HI BRED INTERNATIONAL INC, priority 2012, published 2013).
# What was measured:
# Type in all cases: in vivo
# wild type soybean = test: Greenhouse postemergence test of ALS-inhibiting herbicides, wild type soybean
# Method in brief: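 Wild-type soybean (also lines carrying Als1, Als2 or both mutations) grown in greenhouse, 16 hr photoperiod, sprayed postemergence at V2 with ALS-inhibiting herbicides at 0.5×, 1×, 2×, 4× and 8× label rate in water with 0.25% nonionic surfactant, 30 gallons/acre. Phytotoxicity scored visually 14 days after application, 0–100 scale (0 none, 100 plant death).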
# [1] = system: soybean having the Als1 mutation; test: Greenhouse postemergence test of ALS-inhibiting herbicides, soybean with Als1 mutation; conditions: for Avg response (% phytotoxicity), Trait Als1: Table 2; for EC10, Als1: rate of herbicide estimated to cause 10% phytotoxic response, loglogistic fit
# Method in brief: (§1)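 Greenhouse-grown soybean lines (16 hr photoperiod) at V2 stage got postemergence sprays of eleven ALS-inhibiting actives from five chemical families. Rates were 0.5×–8× label rate at 30 gallons/acre in water with 0.25% nonionic surfactant. Phytotoxicity was scored visually (0–100) 14 days after application, with EC50/EC10 from log-logistic fits feeding isobole analysis (1:1 Als1:Als2 assumption).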
# [2] = system: soybean having the Als2 mutation; test: Greenhouse postemergence test of ALS-inhibiting herbicides, soybean with Als2 mutation; conditions: for Avg response (% phytotoxicity), Trait Als2: Table 2; for EC10, Als2: rate of herbicide estimated to cause 10% phytotoxic response, loglogistic fit
# Method in brief: as §1
# [3] = system: soybean having both the Als1 and Als2 mutations; test: Greenhouse postemergence test of ALS-inhibiting herbicides and isobole analysis, soybean with Als1 and Als2 mutations; conditions: for Avg response (% phytotoxicity), Trait Als1 + Als2: Table 2; for EC10, Als1 + Als2: rate of herbicide estimated to cause 10% phytotoxic response, loglogistic fit
# Method in brief: as §1
# [4] = 17.5 g ai/ha postemergence at V2, scored 14 days after application
# [5] = 35 g ai/ha postemergence at V2, scored 14 days after application
# [6] = 70 g ai/ha postemergence at V2, scored 14 days after application
# [7] = 140 g ai/ha postemergence at V2, scored 14 days after application
# [8] = 280 g ai/ha postemergence at V2, scored 14 days after application
# [9] = 8.75 g ai/ha postemergence at V2, scored 14 days after application
structure (smiles),measurement,setting,value
COc1cc(OC)nc(NC(=O)NS(=O)(=O)c2ncccc2C(=O)N(C)C)n1 [Nicosulfuron],"Soybean response (percent phytotoxicity), Wild type",wild type soybean; [4],0%
same,"Soybean response (percent phytotoxicity), Wild type",wild type soybean; [5],10%
same,"Soybean response (percent phytotoxicity), Wild type",wild type soybean; [6],20%
same,"Soybean response (percent phytotoxicity), Wild type",wild type soybean; [7],45%
same,"Soybean response (percent phytotoxicity), Wild type",wild type soybean; [8],65%
same,"Soybean response (percent phytotoxicity), Als1",[1]; [4],0%
same,"Avg response (% phytotoxicity), Trait Als1",[1]; 17.5 g ai/ha,0%
same,"Soybean response (percent phytotoxicity), Als1",[1]; [5],0%
same,"Avg response (% phytotoxicity), Trait Als1",[1]; 35 g ai/ha,0%
same,"Soybean response (percent phytotoxicity), Als1",[1]; [6],0%
same,"Avg response (% phytotoxicity), Trait Als1",[1]; 70 g ai/ha,0%
same,"Soybean response (percent phytotoxicity), Als1",[1]; [7],5%
same,"Avg response (% phytotoxicity), Trait Als1",[1]; 140 g ai/ha,5%
same,"Soybean response (percent phytotoxicity), Als1",[1]; [8],25%
same,"Avg response (% phytotoxicity), Trait Als1",[1]; 280 g ai/ha,25%
same,"EC10, Als1",[1],187.47 g ai/ha
same,"Soybean response (percent phytotoxicity), Als2",[2]; [4],0%
same,"Avg response (% phytotoxicity), Trait Als2",[2]; 17.5 g ai/ha,0%
same,"Soybean response (percent phytotoxicity), Als2",[2]; [5],0%
same,"Avg response (% phytotoxicity), Trait Als2",[2]; 35 g ai/ha,0%
same,"Soybean response (percent phytotoxicity), Als2",[2]; [6],0%
same,"Avg response (% phytotoxicity), Trait Als2",[2]; 70 g ai/ha,0%
same,"Soybean response (percent phytotoxicity), Als2",[2]; [7],20%
same,"Avg response (% phytotoxicity), Trait Als2",[2]; 140 g ai/ha,20%
same,"Soybean response (percent phytotoxicity), Als2",[2]; [8],35%
same,"Avg response (% phytotoxicity), Trait Als2",[2]; 280 g ai/ha,35%
same,"EC10, Als2",[2],105.60 g ai/ha
same,"Soybean response (percent phytotoxicity), Als1 + Als2",[3]; [4],0%
same,"Avg response (% phytotoxicity), Trait Als1 + Als2",[3]; 17.5 g ai/ha,0%
same,"Soybean response (percent phytotoxicity), Als1 + Als2",[3]; [5],0%
same,"Avg response (% phytotoxicity), Trait Als1 + Als2",[3]; 35 g ai/ha,0%
same,"Soybean response (percent phytotoxicity), Als1 + Als2",[3]; [6],0%
same,"Avg response (% phytotoxicity), Trait Als1 + Als2",[3]; 70 g ai/ha,0%
same,"Soybean response (percent phytotoxicity), Als1 + Als2",[3]; [7],0%
same,"Avg response (% phytotoxicity), Trait Als1 + Als2",[3]; 140 g ai/ha,0%
same,"Soybean response (percent phytotoxicity), Als1 + Als2",[3]; [8],5%
same,"Avg response (% phytotoxicity), Trait Als1 + Als2",[3]; 280 g ai/ha,5%
same,"EC10, Als1 + Als2",[3],>280 g ai/ha
CCS(=O)(=O)c1cccnc1S(=O)(=O)NC(=O)Nc1nc(OC)cc(OC)n1 [Rimsulfuron],"Soybean response (percent phytotoxicity), Wild type",wild type soybean; [9],10%
same,"Soybean response (percent phytotoxicity), Wild type",wild type soybean; [4],35%
same,"Soybean response (percent phytotoxicity), Wild type",wild type soybean; [5],85%
same,"Soybean response (percent phytotoxicity), Wild type",wild type soybean; [6],95%
same,"Soybean response (percent phytotoxicity), Wild type",wild type soybean; [7],98%
same,"Soybean response (percent phytotoxicity), Als1",[1]; [9],0%
same,"Avg response (% phytotoxicity), Trait Als1",[1]; 8.75 g ai/ha,0%
same,"Soybean response (percent phytotoxicity), Als1",[1]; [4],0%
same,"Avg response (% phytotoxicity), Trait Als1",[1]; 17.5 g ai/ha,0%
same,"Soybean response (percent phytotoxicity), Als1",[1]; [5],20%
same,"Avg response (% phytotoxicity), Trait Als1",[1]; 35 g ai/ha,20%
same,"Soybean response (percent phytotoxicity), Als1",[1]; [6],40%
same,"Avg response (% phytotoxicity), Trait Als1",[1]; 70 g ai/ha,40%
same,"Soybean response (percent phytotoxicity), Als1",[1]; [7],80%
same,"Avg response (% phytotoxicity), Trait Als1",[1]; 140 g ai/ha,80%
same,"EC10, Als1",[1],28.61 g ai/ha
same,"phytotoxicity (in words), soybean containing only the Als1 gene",[1]; the higher doses,substantial phytotoxicity
same,"Soybean response (percent phytotoxicity), Als2",[2]; [9],0%
same,"Avg response (% phytotoxicity), Trait Als2",[2]; 8.75 g ai/ha,0%
same,"Soybean response (percent phytotoxicity), Als2",[2]; [4],0%
same,"Avg response (% phytotoxicity), Trait Als2",[2]; 17.5 g ai/ha,0%
same,"Soybean response (percent phytotoxicity), Als2",[2]; [5],20%
same,"Avg response (% phytotoxicity), Trait Als2",[2]; 35 g ai/ha,20%
same,"Soybean response (percent phytotoxicity), Als2",[2]; [6],60%
same,"Avg response (% phytotoxicity), Trait Als2",[2]; 70 g ai/ha,60%
same,"Soybean response (percent phytotoxicity), Als2",[2]; [7],80%
same,"Avg response (% phytotoxicity), Trait Als2",[2]; 140 g ai/ha,80%
same,"EC10, Als2",[2],23.88 g ai/ha
same,"phytotoxicity (in words), soybean containing only the Als2 gene",[2]; the higher doses,substantial phytotoxicity
same,"Soybean response (percent phytotoxicity), Als1 + Als2",[3]; [9],0%
same,"Avg response (% phytotoxicity), Trait Als1 + Als2",[3]; 8.75 g ai/ha,0%
same,"Soybean response (percent phytotoxicity), Als1 + Als2",[3]; [4],0%
same,"Avg response (% phytotoxicity), Trait Als1 + Als2",[3]; 17.5 g ai/ha,0%
same,"Soybean response (percent phytotoxicity), Als1 + Als2",[3]; [5],0%
same,"Avg response (% phytotoxicity), Trait Als1 + Als2",[3]; 35 g ai/ha,0%
same,"Soybean response (percent phytotoxicity), Als1 + Als2",[3]; [6],10%
same,"Avg response (% phytotoxicity), Trait Als1 + Als2",[3]; 70 g ai/ha,10%
same,"Soybean response (percent phytotoxicity), Als1 + Als2",[3]; [7],10%
same,"Avg response (% phytotoxicity), Trait Als1 + Als2",[3]; 140 g ai/ha,10%
same,"EC10, Als1 + Als2",[3],123.22 g ai/ha
same,"tolerance (in words), soybean containing both the Als1 and the Als2 genes",[3]; the higher doses,extremely tolerant
